Measured values from patent publication US10189841B2, “Purinones as ubiquitin-specific protease 1 inhibitors” (Forma Therapeutics, Inc., priority 2015, dated 2019).

Target: USP1 (construct USP1 (I-785, GG670, 671AA)/UAF1 (I-677)-Flag) (Homo sapiens (Human), UniProt O94782, G670A/G671A)
Test: Ubiquitin-Rhodamine 110 assay for USP1 activity
Assay type: biochemical
Conditions: USP1/UAF1 25 pM, Ub-Rh110 25 nM, 30 min preincubation
Summary of the method: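 Two formats with the USP1/UAF1 complex and 25 nM ubiquitin-rhodamine 110 in pH 8.0 Tris buffer with calcium, glutathione and detergent. Single-point screening used 10 µM, 100 pM enzyme and 45 min. Inhibition was set against no-enzyme and DMSO wells.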

Chain of USP1 (construct USP1 (I-785, GG670, 671AA)/UAF1 (I-677)-Flag) (O94782 whole entry G670A/G671A): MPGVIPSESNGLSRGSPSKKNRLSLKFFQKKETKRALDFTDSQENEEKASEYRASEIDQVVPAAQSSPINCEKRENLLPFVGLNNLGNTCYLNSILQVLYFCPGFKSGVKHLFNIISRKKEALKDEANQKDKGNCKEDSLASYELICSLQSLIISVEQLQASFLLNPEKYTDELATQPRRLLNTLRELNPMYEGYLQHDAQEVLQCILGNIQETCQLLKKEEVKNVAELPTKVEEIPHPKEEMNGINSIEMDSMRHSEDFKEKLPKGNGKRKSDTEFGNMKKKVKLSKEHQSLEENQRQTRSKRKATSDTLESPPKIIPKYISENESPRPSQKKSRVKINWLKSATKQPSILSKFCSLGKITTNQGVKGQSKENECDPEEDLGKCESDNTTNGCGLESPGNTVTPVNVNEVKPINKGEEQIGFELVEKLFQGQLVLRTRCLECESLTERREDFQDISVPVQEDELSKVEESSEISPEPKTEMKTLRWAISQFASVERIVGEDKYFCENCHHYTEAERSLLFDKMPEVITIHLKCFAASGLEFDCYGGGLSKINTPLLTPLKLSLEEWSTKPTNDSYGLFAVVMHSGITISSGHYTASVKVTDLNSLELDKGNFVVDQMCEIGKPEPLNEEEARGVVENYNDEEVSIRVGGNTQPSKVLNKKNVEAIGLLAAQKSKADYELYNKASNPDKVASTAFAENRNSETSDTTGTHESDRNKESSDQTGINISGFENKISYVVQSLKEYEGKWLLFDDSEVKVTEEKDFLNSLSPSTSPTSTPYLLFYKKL
Chain of USP1 (construct USP1 (I-785, GG670, 671AA)/UAF1 (I-677)-Flag) (Q8TAF3 whole entry partner): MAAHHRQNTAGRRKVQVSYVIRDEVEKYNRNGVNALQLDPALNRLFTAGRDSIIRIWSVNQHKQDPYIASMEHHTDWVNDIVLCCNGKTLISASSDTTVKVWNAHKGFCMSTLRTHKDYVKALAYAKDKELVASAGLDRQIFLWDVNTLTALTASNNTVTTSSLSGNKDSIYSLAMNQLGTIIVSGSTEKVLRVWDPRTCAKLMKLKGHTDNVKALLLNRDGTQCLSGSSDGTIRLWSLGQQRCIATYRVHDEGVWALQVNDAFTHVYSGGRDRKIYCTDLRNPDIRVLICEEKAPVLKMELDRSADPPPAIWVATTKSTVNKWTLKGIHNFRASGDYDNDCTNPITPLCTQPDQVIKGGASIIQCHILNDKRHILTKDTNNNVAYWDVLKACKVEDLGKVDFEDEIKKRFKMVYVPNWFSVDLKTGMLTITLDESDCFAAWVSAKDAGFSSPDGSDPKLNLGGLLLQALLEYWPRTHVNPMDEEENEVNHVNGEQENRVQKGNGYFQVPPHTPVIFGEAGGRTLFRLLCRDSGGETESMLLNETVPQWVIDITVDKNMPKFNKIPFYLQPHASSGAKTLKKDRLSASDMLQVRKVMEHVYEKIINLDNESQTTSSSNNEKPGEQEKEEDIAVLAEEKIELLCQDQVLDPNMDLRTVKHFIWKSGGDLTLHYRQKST

Row | Compound | IC50
1 | CC(C)c1ccccc1-c1ncc2c(n1)n(Cc1ccc(-c3nccn4ccnc34)cc1)c(=O)n2C [Compound I-289, 9-(4-(imidazo[1,2-a]pyrazin-8-yl)benzyl)-2-(2-isopropylphenyl)-7-methyl-7,9-dihydro-8H-purin-8-one] | < 50 nM
2 | Cc1coc(-c2ccc(Cn3c(=O)n(C)c4cnc(-c5ccccc5C(C)C)nc43)cc2)n1 [Compound I-290, 2-(2-isopropylphenyl)-7-methyl-9-(4-(4-methyloxazol-2-yl)benzyl)-7,9-dihydro-8H-purin-8-one] | < 50 nM
3 | CC(C)c1ccccc1-c1ncc2[nH]c(=O)n(Cc3ccc(-c4nccn5ccnc45)cc3)c2n1 [Compound I-291, 9-(4-(imidazo[1,2-a]pyrazin-8-yl)benzyl)-2-(2-isopropylphenyl)-7,9-dihydro-8H-purin-8-one] | < 50 nM
4 | CC(C)c1ccccc1-c1ncc2[nH]c(=O)n(Cc3ccc(-c4nc(N5CCOCC5)n(C)n4)cc3)c2n1 [Compound I-292, 2-(2-isopropylphenyl)-9-(4-(1-methyl-5-morpholino-1H-1,2,4-triazol-3-yl)benzyl)-7,9-dihydro-8H-purin-8-one] | 50 to 200 nM
5 | CC(C)c1ccccc1-c1ncc2[nH]c(=O)n(Cc3ccc(-c4nc(C(F)(F)F)n(C)n4)cc3)c2n1 [Compound I-293, 2-(2-isopropylphenyl)-9-(4-(1-methyl-5-(trifluoromethyl)-1H-1,2,4-triazol-3-yl)benzyl)-7,9-dihydro-8H-purin-8-one] | < 50 nM
6 | Cc1nc(-c2ccc(Cn3c(=O)[nH]c4cnc(-c5ccccc5C(C)C)nc43)cc2)nn1C [Compound I-294, 9-(4-(1,5-dimethyl-1H-1,2,4-triazol-3-yl)benzyl)-2-(2-isopropylphenyl)-7,9-dihydro-8H-purin-8-one] | < 50 nM
7 | COc1nc(-c2ccc(Cn3c(=O)[nH]c4cnc(-c5ccccc5C(C)C)nc43)cc2)nn1C [Compound I-295, 2-(2-isopropylphenyl)-9-(4-(5-methoxy-1-methyl-1H-1,2,4-triazol-3-yl)benzyl)-7,9-dihydro-8H-purin-8-one] | < 50 nM
8 | Cc1nc(-c2ccc(Cn3c(=O)[nH]c4cnc(-c5ccccc5C(C)C)nc43)cc2)n(C)n1 [Compound I-296, 9-(4-(1,3-dimethyl-1H-1,2,4-triazol-5-yl)benzyl)-2-(2-isopropylphenyl)-7,9-dihydro-8H-purin-8-one] | < 50 nM
9 | CC(C)c1ccccc1-c1ncc2[nH]c(=O)n(Cc3ccc(-c4ncn(C)c4CO)cc3)c2n1 [Compound I-297, 9-(4-(5-(hydroxymethyl)-1-methyl-1H-imidazol-4-yl)benzyl)-2-(2-isopropylphenyl)-7,9-dihydro-8H-purin-8-one] | 200 to 2000 nM
10 | CC(C)c1ccccc1-c1ncc2[nH]c(=O)n(Cc3ccc(-c4cnnn4C)cc3)c2n1 [Compound I-298, 2-(2-isopropylphenyl)-9-(4-(1-methyl-1H-1,2,3-triazol-5-yl)benzyl)-7,9-dihydro-8H-purin-8-one] | > 2000 nM
11 | CC(C)c1ccccc1-c1ncc2[nH]c(=O)n(Cc3ccc(-c4ccnn4C(C)C)cc3)c2n1 [Compound I-299, 9-(4-(1-isopropyl-1H-pyrazol-5-yl)benzyl)-2-(2-isopropylphenyl)-7,9-dihydro-8H-purin-8-one] | 50 to 200 nM
12 | Cc1scnc1-c1ccc(Cn2c(=O)[nH]c3cnc(-c4ccccc4C(C)C)nc32)cc1 [Compound I-300, 2-(2-isopropylphenyl)-9-(4-(5-methylthiazol-4-yl)benzyl)-7,9-dihydro-8H-purin-8-one] | < 50 nM
13 | Cc1nc(-c2ccc(Cn3c(=O)[nH]c4cnc(-c5ccccc5C(C)C)nc43)cc2)c(C)s1 [Compound I-301, 9-(4-(2,5-dimethylthiazol-4-yl)benzyl)-2-(2-isopropylphenyl)-7,9-dihydro-8H-purin-8-one] | < 50 nM
14 | CC(C)c1ccccc1-c1ncc2[nH]c(=O)n(Cc3ccc(-c4ncsc4CO)cc3)c2n1 [Compound I-302, 9-(4-(5-(hydroxymethyl)thiazol-4-yl)benzyl)-2-(2-isopropylphenyl)-7,9-dihydro-8H-purin-8-one] | < 50 nM
15 | Cc1scnc1-c1ccc(Cn2c(=O)n(C)c3cnc(-c4ccccc4C(C)C)nc32)cc1 [Compound I-303, 2-(2-isopropylphenyl)-7-methyl-9-(4-(5-methylthiazol-4-yl)benzyl)-7,9-dihydro-8H-purin-8-one] | < 50 nM
16 | Cc1nc(-c2ccc(Cn3c(=O)n(C)c4cnc(-c5ccccc5C(C)C)nc43)cc2)c(C)s1 [Compound I-304, 9-(4-(2,5-dimethylthiazol-4-yl)benzyl)-2-(2-isopropylphenyl)-7-methyl-7,9-dihydro-8H-purin-8-one] | < 50 nM

Row | Compound | IC50
17 | CC(C)c1ccccc1-c1ncc2c(n1)n(Cc1ccc(-c3ncsc3CO)cc1)c(=O)n2C [Compound I-305, 9-(4-(5-(hydroxymethyl)thiazol-4-yl)benzyl)-2-(2-isopropylphenyl)-7-methyl-7,9-dihydro-8H-purin-8-one] | < 50 nM
18 | Cc1cn2ccnc2c(-c2ccc(Cn3c(=O)[nH]c4cnc(-c5ccccc5C(C)C)nc43)cc2)n1 [Compound I-306, 2-(2-isopropylphenyl)-9-(4-(6-methylimidazo[1,2-a]pyrazin-8-yl)benzyl)-7,9-dihydro-8H-purin-8-one] | < 50 nM
19 | Cc1cn(C)c(-c2ccc(Cn3c(=O)[nH]c4cnc(-c5cccc(F)c5C(C)C)nc43)cc2)n1 [Compound I-307, 9-(4-(1,4-dimethyl-1H-imidazol-2-yl)benzyl)-2-(3-fluoro-2-isopropylphenyl)-7,9-dihydro-8H-purin-8-one] | < 50 nM
20 | CC(C)c1c(F)cccc1-c1ncc2[nH]c(=O)n(Cc3ccc(-c4cn(C)cn4)cc3)c2n1 [Compound I-308, 2-(3-fluoro-2-isopropylphenyl)-9-(4-(1-methyl-1H-imidazol-4-yl)benzyl)-7,9-dihydro-8H-purin-8-one] | < 50 nM
21 | CC(C)c1ccccc1-c1ncc2[nH]c(=O)n([C@H](C)c3ccc(-c4nccn4C)cc3)c2n1 [Compound I-309, (R)-2-(2-isopropylphenyl)-9-(1-(4-(1-methyl-1H-imidazol-2-yl)phenyl)ethyl)-7,9-dihydro-8H-purin-8-one] | < 50 nM
22 | CC(C)c1ccccc1-c1ncc2[nH]c(=O)n([C@@H](C)c3ccc(-c4nccn4C)cc3)c2n1 [Compound I-310, (S)-2-(2-isopropylphenyl)-9-(1-(4-(1-methyl-1H-imidazol-2-yl)phenyl)ethyl)-7,9-dihydro-8H-purin-8-one] | < 50 nM
23 | CNc1ncccc1-c1ncc2[nH]c(=O)n(Cc3ccc(-c4nc(C(F)(F)F)cn4C)cc3)c2n1 [Compound I-311, 9-(4-(1-methyl-4-(trifluoromethyl)-1H-imidazol-2-yl)benzyl)-2-(2-(methylamino)pyridin-3-yl)-7,9-dihydro-8H-purin-8-one] | < 50 nM
24 | CCNc1ncccc1-c1ncc2[nH]c(=O)n(Cc3ccc(-c4nc(C(F)(F)F)cn4C)cc3)c2n1 [Compound I-312, 2-(2-(ethylamino)pyridin-3-yl)-9-(4-(1-methyl-4-(trifluoromethyl)-1H-imidazol-2-yl)benzyl)-7,9-dihydro-8H-purin-8-one] | < 50 nM
25 | CC(C)Nc1ncccc1-c1ncc2[nH]c(=O)n(Cc3ccc(-c4nc(C(F)(F)F)cn4C)cc3)c2n1 [Compound I-313, 2-(2-(isopropylamino)pyridin-3-yl)-9-(4-(1-methyl-4-(trifluoromethyl)-1H-imidazol-2-yl)benzyl)-7,9-dihydro-8H-purin-8-one] | < 50 nM
26 | Cn1cc(C(F)(F)F)nc1-c1ccc(Cn2c(=O)[nH]c3cnc(-c4cccnc4NC4CC4)nc32)cc1 [Compound I-314, 2-(2-(cyclopropylamino)pyridin-3-yl)-9-(4-(1-methyl-4-(trifluoromethyl)-1H-imidazol-2-yl)benzyl)-7,9-dihydro-8H-purin-8-one] | < 50 nM
27 | CCOCCNc1ncccc1-c1ncc2[nH]c(=O)n(Cc3ccc(-c4nc(C(F)(F)F)cn4C)cc3)c2n1 [Compound I-315, 2-(2-((2-ethoxyethyl)amino)pyridin-3-yl)-9-(4-(1-methyl-4-(trifluoromethyl)-1H-imidazol-2-yl)benzyl)-7,9-dihydro-8H-purin-8-one] | < 50 nM
28 | Cn1cc(C(F)(F)F)nc1-c1ccc(Cn2c(=O)[nH]c3cnc(-c4cccnc4NC4CCC4)nc32)cc1 [Compound I-316, 2-(2-(cyclobutylamino)pyridin-3-yl)-9-(4-(1-methyl-4-(trifluoromethyl)-1H-imidazol-2-yl)benzyl)-7,9-dihydro-8H-purin-8-one] | 50 to 200 nM
29 | COCC(C)Nc1ncccc1-c1ncc2[nH]c(=O)n(Cc3ccc(-c4nc(C(F)(F)F)cn4C)cc3)c2n1 (centres unmarked) [Compound I-317, 2-(2-((1-methoxypropan-2-yl)amino)pyridin-3-yl)-9-(4-(1-methyl-4-(trifluoromethyl)-1H-imidazol-2-yl)benzyl)-7,9-dihydro-8H-purin-8-one] | 50 to 200 nM
30 | CN(C)C(=O)CNc1ncccc1-c1ncc2[nH]c(=O)n(Cc3ccc(-c4nc(C(F)(F)F)cn4C)cc3)c2n1 [Compound I-318, N,N-dimethyl-2-((3-(9-(4-(1-methyl-4-(trifluoromethyl)-1H-imidazol-2-yl)benzyl)-8-oxo-8,9-dihydro-7H-purin-2-yl)pyridin-2-yl)amino)acetamide] | 200 to 2000 nM
31 | COC[C@@H](C)Nc1ncccc1-c1ncc2[nH]c(=O)n(Cc3ccc(-c4nc(C(F)(F)F)cn4C)cc3)c2n1 [Compound I-319, (R)-2-(2-((1-methoxypropan-2-yl)amino)pyridin-3-yl)-9-(4-(1-methyl-4-(trifluoromethyl)-1H-imidazol-2-yl)benzyl)-7,9-dihydro-8H-purin-8-one] | 200 to 2000 nM
32 | Cn1cc(C(F)(F)F)nc1-c1ccc(Cn2c(=O)[nH]c3cnc(-c4cccnc4NCC4CCCO4)nc32)cc1 (centres unmarked) [Compound I-320, 9-(4-(1-methyl-4-(trifluoromethyl)-1H-imidazol-2-yl)benzyl)-2-(2-(((tetrahydrofuran-2-yl)methyl)amino)pyridin-3-yl)-7,9-dihydro-8H-purin-8-one] | 50 to 200 nM
